PubChem BioAssay AID256 (DTP/NCI, 2004)
Toxic doses and inconclusive results are not listed. Rule for the calls: active = survival T/C of 150% or more; inactive = T/C below 125% in these data.

Tested on: CD2F1 mice, L1210 leukemia ip, survival T/C
Assay: NCI In Vivo Anticancer Drug Screen. Data for tumor model L1210 Leukemia (intraperitoneal) in CD2F1 (CDF1) mice
Details: endpoint: mean survival time, higher = longer survival
How it was run: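 Mice carrying a transplanted tumor received test compound or vehicle alone. The value is the measurement in the treated group divided by that in the vehicle-treated control group.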

[1] = dose: 100.0 mg/kg/injection, schedule: Q01DX009 (ip), vehicle: saline with Tween-80
[2] = dose: 100.0 mg/kg/injection, schedule: Q04DX003 (ip), vehicle: saline with Tween-80
[3] = dose: 200.0 mg/kg/injection, schedule: Q01DX009 (ip), vehicle: saline with Tween-80
[4] = dose: 200.0 mg/kg/injection, schedule: Q04DX003 (ip), vehicle: saline with Tween-80
[5] = dose: 400.0 mg/kg/injection, schedule: Q01DX009 (ip), vehicle: saline with Tween-80
[6] = dose: 400.0 mg/kg/injection, schedule: Q04DX003 (ip), vehicle: saline with Tween-80

Measured: T/C

C/C(=N/N(C)C)c1ccc2ccccc2c1
inactive: dose: 12.5 mg/kg/injection, schedule: Q01DX009 (ip), vehicle: saline with Tween-80 97 % of control | dose: 25.0 mg/kg/injection, schedule: Q01DX001 (ip), vehicle: saline with Tween-80 103 % of control | dose: 25.0 mg/kg/injection, schedule: Q01DX009 (ip), vehicle: saline with Tween-80 95 % of control | dose: 50.0 mg/kg/injection, schedule: Q01DX001 (ip), vehicle: saline with Tween-80 97 % of control | dose: 100.0 mg/kg/injection, schedule: Q01DX001 (ip), vehicle: saline with Tween-80 103 % of control

NCCN1c2ccccc2Sc2ccccc21
inactive: dose: 12.5 mg/kg/injection, schedule: Q01DX009 (ip), vehicle: other 105 % of control | dose: 25.0 mg/kg/injection, schedule: Q01DX009 (ip), vehicle: other 98 % of control | dose: 50.0 mg/kg/injection, schedule: Q01DX009 (ip), vehicle: other 113 % of control

COc1ccc([Se][Se]c2ccc(OC)cc2NC(C)=O)c(NC(C)=O)c1
inactive: dose: 50.0 mg/kg/injection, schedule: Q01DX009 (ip), vehicle: saline with Tween-80 97 % of control | [1] 101 % of control | [2] 89 % of control | [3] 105 % of control | [4] 87 % of control

O=[N+]([O-])c1ccc(O)c(N=Cc2ccccc2O)c1
inactive: dose: 100.0 mg/kg/injection, schedule: Q04DX002 (ip), vehicle: Klucel (hydroxypropylcellulose) (HPC) 105 % of control | dose: 200.0 mg/kg/injection, schedule: Q04DX002 (ip), vehicle: Klucel (hydroxypropylcellulose) (HPC) 97 % of control | dose: 400.0 mg/kg/injection, schedule: Q04DX002 (ip), vehicle: Klucel (hydroxypropylcellulose) (HPC) 97 % of control

O=Cc1ccc(O)c2ncccc12
inactive: dose: 75.0 mg/kg/injection, schedule: Q01DX001 (ip), vehicle: other 101 % of control | dose: 150.0 mg/kg/injection, schedule: Q01DX001 (ip), vehicle: other 95 % of control | dose: 300.0 mg/kg/injection, schedule: Q01DX001 (ip), vehicle: other 110 % of control

C=C(C)CC#N
inactive: dose: 50.0 mg/kg/injection, schedule: Q01DX009 (ip), vehicle: saline 92 % of control | dose: 100.0 mg/kg/injection, schedule: Q01DX009 (ip), vehicle: saline 95 % of control | dose: 200.0 mg/kg/injection, schedule: Q01DX009 (ip), vehicle: saline 100 % of control

Nc1nc(N)nc(N)n1
inactive: [1] 95 % of control | [2] 97 % of control | [3] 94 % of control | [4] 105 % of control | [5] 95 % of control | [6] 97 % of control | dose: 800.0 mg/kg/injection, schedule: Q01DX009 (ip), vehicle: saline with Tween-80 90 % of control

COc1ccc(NC(=O)Nc2ccc(OC)cc2OC)cc1
inactive: dose: 100.0 mg/kg/injection, schedule: Q04DX002 (ip), vehicle: saline with Tween-80 86 % of control | dose: 200.0 mg/kg/injection, schedule: Q04DX002 (ip), vehicle: saline with Tween-80 90 % of control | dose: 400.0 mg/kg/injection, schedule: Q04DX002 (ip), vehicle: saline with Tween-80 86 % of control

O=c1cc(Cl)c(=O)[nH][nH]1
inactive: dose: 100.0 mg/kg/injection, schedule: Q01DX001 (ip), vehicle: other 104 % of control | [1] 92 % of control | [2] 94 % of control | dose: 200.0 mg/kg/injection, schedule: Q01DX001 (ip), vehicle: other 97 % of control | [3] 94 % of control | [4] 94 % of control | dose: 400.0 mg/kg/injection, schedule: Q01DX001 (ip), vehicle: other 98 % of control | [5] 97 % of control | [6] 96 % of control
